Legend:
BACE1 enzyme = BACE1 enzyme (Homo sapiens (Human), UniProt P56817); test: BACE1 Cell-Free Assay (fluorescence polarization, cleavage of synthetic APP substrate); format: biochemical; details: geometric mean of 2-3 determinations; Examples 32-34 (footnote b) single determination
Text: Beta-secretase (BACE) is one of the enzymes involved in the generation of the amyloid beta peptide found in the amyloid plaques of Alzheimer's Disease patients. This assay measures the inhibition of the beta-secretase enzyme as it cleaves a non-native peptide.
A synthetic APP substrate that can be cleaved by beta-secretase having N-terminal biotin and made fluorescent by the covalent attachment of Oregon Green at the Cys residue is used to assay beta-secretase activity in the presence or absence of the inhibitory compounds. The substrate is Biotin-GLTNIKTEEISEISY^EVEFR-C[Oregon Green]KK-OH. The BACE1 enzyme is affinity purified material from conditioned media of CHO-K1 cells that have been transfected with a soluble BACE construct (BACE1deltaTM96His). Compounds are incubated in a log dose response curve from a top concentration of 100 μM with BACE1 enzyme and the biotinylated fluorescent peptide in 384-well black plates (Thermo Scientific #4318). BACE1 is at a final concentration of 0.1 nM with a final concentration of peptide substrate of 150 nM in a reaction volume of 30 μL assay buffer [100 mM sodium acetate, pH 4.5 (brought to pH with acetic acid), and 0.001% Tween-20]. Plates are covered and incubated for 3 hours at 37° C. The reaction is stopped with the addition of 30 μL of 1.5 μM Streptavidin (Pierce, #21125). After a 10 minute incubation at room temperature, plates are read on a PerkinElmer EnVision for fluorescence polarization (Ex485 nm/Em530 nm). The activity of the beta-secretase enzyme is detected by changes in the fluorescence polarization that occur when the substrate is cleaved by the enzyme.

[1] = test system: sAPPβ levels in H4 human neuroglioma cells over-expressing the wild-type human APP695; test: Whole Cell Assay (In Vitro sAPPβ Assay), TMB-ELISA; format: cell-based; details: 18 hours, geometric mean of 2-3 determinations, Examples 32-34 (footnote b) single determination
Experimental: Whole Cell Assay (In Vitro sAPPpβ Assay):
H4 human neuroglioma cells over-expressing the wild-type human APP695 are treated for 18 hours with compound in a final concentration 1% DMSO. sAPPβ levels are measured using TMB-ELISA with capture APP N-terminal antibody (Affinity BioReagents, OMA1-03132), wild-type sAPPβ specific reporter p192 (Elan), and tertiary anti rabbit-HRP (GE Healthcare).

BACE1 enzyme, sequence (P56817 46-457): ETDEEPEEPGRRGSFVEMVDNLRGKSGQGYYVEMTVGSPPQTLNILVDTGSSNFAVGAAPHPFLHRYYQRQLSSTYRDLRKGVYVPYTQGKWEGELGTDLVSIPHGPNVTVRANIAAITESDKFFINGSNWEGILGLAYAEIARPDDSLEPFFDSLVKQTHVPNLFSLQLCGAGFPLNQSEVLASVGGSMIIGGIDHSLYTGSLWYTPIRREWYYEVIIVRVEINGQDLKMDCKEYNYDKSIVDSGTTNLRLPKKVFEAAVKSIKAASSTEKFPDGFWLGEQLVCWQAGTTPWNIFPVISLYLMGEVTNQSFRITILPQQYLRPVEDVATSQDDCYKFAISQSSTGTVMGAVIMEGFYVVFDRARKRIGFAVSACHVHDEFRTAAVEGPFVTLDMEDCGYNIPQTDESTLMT

Row | IC50 (BACE1 enzyme) | IC50 [1] | Compound
1 | 86 nM | 0.055 nM | NC1=N[C@@]2(c3ccc(F)cc3F)CO[C@@H](c3ccccc3F)C[C@H]2CS1 [Example 3, (4aR,6R,8aS)-8a-(2,4-difluorophenyl)-6-(2-fluorophenyl)-4,4a,5,6,8,8a-hexahydropyrano[3,4-d][1,3]thiazin-2-amine]
2 | 15 nM | 0.016 nM | NC1=N[C@@]2(c3ccc(F)cc3F)CO[C@@H](c3ccc(Cl)cc3)C[C@H]2CS1 [Example 12, (4aR,6R,8aS)-6-(4-chlorophenyl)-8a-(2,4-difluorophenyl)-4,4a,5,6,8,8a-hexahydropyrano[3,4-d][1,3]thiazin-2-amine]
3 | 214 nM | 0.095 nM | COc1cc([C@H]2C[C@H]3CSC(N)=N[C@@]3(c3ccc(F)cc3F)CO2)ccc1F [Example 18, (4aR,6R,8aS)-8a-(2,4-difluorophenyl)-6-(4-fluoro-3-methoxyphenyl)-4,4a,5,6,8,8a-hexahydropyrano[3,4-d][1,3]thiazin-2-amine]
4 | 210 nM | 0.055 nM | COC(C)c1ccc([C@H]2C[C@H]3CSC(N)=N[C@@]3(c3ccc(F)cc3F)CO2)cc1 (stereo partly drawn) [Example 28, (4aR,6R,8aS)-8a-(2,4-difluorophenyl)-6-[4-(1-methoxyethyl)phenyl]-4,4a,5,6,8,8a-hexahydropyrano[3,4-d][1,3]thiazin-2-amine]
5 | 6 nM | 0.008 nM | Cc1cc([C@H]2C[C@H]3CSC(N)=N[C@@]3(c3ccc(F)cc3F)CO2)ccc1F [Example 8, (4aR,6R,8aS)-8a-(2,4-difluorophenyl)-6-(4-fluoro-3-methylphenyl)-4,4a,5,6,8,8a-hexahydropyrano[3,4-d][1,3]thiazin-2-amine]
6 | 11 nM | 0.021 nM | CCOc1ccc([C@H]2C[C@H]3CSC(N)=N[C@@]3(c3ccc(F)cc3F)CO2)cc1 [Example 23, (4aR,6R,8aS)-8a-(2,4-difluorophenyl)-6-(4-ethoxyphenyl)-4,4a,5,6,8,8a-hexahydropyrano[3,4-d][1,3]thiazin-2-amine]
7 | 29 nM | 0.018 nM | COc1ccc([C@H]2C[C@H]3CSC(N)=N[C@@]3(c3ccc(F)cc3F)CO2)cc1 [Example 16, (4aR,6R,8aS)-8a-(2,4-difluorophenyl)-6-(4-methoxyphenyl)-4,4a,5,6,8,8a-hexahydropyrano[3,4-d][1,3]thiazin-2-amine]

Reference: patent US9233981B1, “Substituted phenyl hexahydropyrano[3,4-d][1,3]thiazin-2-amine compounds” (Pfizer Inc., priority 2013, dated 2016)
